Results on one molecule are retold here after US11083723B2, “Use of roluperidone to treat negative symptoms and disorders, increase neuroplasticity, and promote neuroprotection” (Minerva Neurosciences, Inc., priority 2018, dated 2021).

Where a name gives a salt, the structure may show the parent alone.

In experiment [1] the test system is BDNF release by primary hippocampal neurons. Nature of the experiment: BDNF release by primary hippocampal neurons, in situ ELISA. The class given is cell-based, rat. The following applies: 3 days incubation. The procedure: Hippocampal neurons were plated in 96-well Nunc MaxiSorp surface polystyrene flat-bottom immunoplate precoated with poly-D-lysine during 30 min an anti-BDNF monoclonal antibody overnight at 4° C. at a density of 70,000 cells/well. […] At the end of drug treatment, cells were carefully washed with TBST (20 mM Tris-HCl (pH 7.6), 150 mM NaCl, and 0.05% (vol/vol) Tween 20). The plate was then incubated with the polyclonal anti-human BDNF antibody overnight and BDNF quantified.
Experimental Protocol—In Situ ELISA on Primary Hippocampal Neurons Hippocampal Neuron Culture
Newborn rats (Wistar rats, Janvier) were deeply anesthetized by hypothermia and decapitated. […] Cells were mechanically dissociated by 3 passages through a 10 ml pipette. Cells were then centrifuged at 515×g for 10 min at 4° C. […] Viable cells were counted in a Neubauer cytometer using the trypan blue exclusion test.
Hippocampal neurons were plated in 96-well Nunc MaxiSorp surface polystyrene flat-bottom immunoplate precoated with poly-D-lysine during 30 min (Sigma, Ref: P7886, batch: SLBS8705) an anti-BDNF monoclonal antibody overnight at 4° C. at a density of 70000 cells/well.
At the end of drug treatment, cells were carefully washed with TBST (20 mM Tris-HCl (pH 7.6), 150 mM NaCl, and 0.05% (vol/vol) Tween 20). The plate was then incubated with the polyclonal anti-human BDNF antibody overnight. The amount of specifically bound polyclonal antibody was then detected through the use of the anti-IgY-horseradish peroxidase tertiary antibody, which when exposed to the chromogenic substrate (TMB reagent; Promega), changes color in proportion to the amount of BDNF present in the sample. The color intensity was quantified by measuring the absorbance at 450 nm.

Experiment [2] concerns BDNF expression by astrocytes. Nature of the experiment: BDNF expression by astrocytes, qPCR. The experiment is classed as cell-based, rat. Particulars: for BDNF expression astrocytes, % increase of control conditions: 5 days incubation; for BDNF expression by astrocytes, fold change (Fc) compared to control condition: 5 days. As for the experimental part:
For analysis of BDNF expression by real-time quantitative polymerase chain reaction (qPCR), astrocytes were seeded in 24 well-plates pre-coated with poly-D-lysine. After 1 day of culture, fresh serum free medium containing compounds was added during 5 days at 37° C. At the end of the incubation time total RNA content were extracted and reverse transcription was performed. Expression levels were calculated using the ΔCt method where the expression level of the mRNA of interest is given by 2-ΔCT with ΔCT=CT target mRNA−CT reference mRNA (Gapdh), in the same sample.
Rat Primary Culture of Astrocytes—rat mixed glial cells were cultured as described by McCarthy et al., 1980. Primary rat glial cells were prepared from the cortical of newborn Wistar rats (1 day). Briefly, meninges and blood vessels of the mice cortex were removed and placed in ice-cold medium of Leibovitz (L15; PanBiotech, ref P04-27055, batch 4511117) containing 2% of Penicillin-Streptomycin (PS; PanBiotech, ref P06-07100, batch 2110917) and 1% of bovine serum albumin (BSA; PanBiotech, ref P06-1391100, batch H171006). Tissues were dissociated with 0.25% trypsin-EDTA (PanBiotech, ref P10-023100, batch 8970318) at 37° C. for 10 min. Cells were then submitted to a supplementary incubation of 15 min at 37° C. in presence of deoxyribonuclease I (0.1 mg/ml Panbiotech, ref: P60-37780100, batch: H170706). Cells were then pelleted (5 min at 1200 rpm) and trypsinization was stopped by adding DMEM (Panbiotech, Ref P04-03600, Batch 5181217) supplemented with 10% FCS (Fischer, Ref 10270106, batch 42G2068K), 1 mM of Na/pyruvate (PanBiotech, ref: P04-43100, batch: 3470914) and 2% PS. Cells suspension was mechanically dissociated and filtered through 40 μm diameter nylon meshes (BD Falcon, Ref: 352340). The cells were collected by centrifugation at 1200 rpm/min for 10 min, re-suspended in culture medium and then plated in culture flasks (Dutscher, ref: 690175). Cells were seeded at a density of 1.25×10^5 cells/cm^2 and cultured in 5% CO2 at 37° C. Medium was changed three times per week.
Analysis of BDNF expression by real-time quantitative polymerase chain reaction (PCR): astrocytes were seeded in 24 well-plates pre-coated with poly-D-lysine (Sigma, ref P7886, batch: SLBQ9797V). After 1 day of culture, fresh serum free medium containing compounds was added during 5 days at 37° C. At the end of the incubation time, medium was removed and total RNA content were extracted using kit nucleo spin RNS XS (Macherey Nagel; 20 μL/well). 6 wells/condition were done. RNA concentration was determined using a Nanodrop 2000 spectrophotometer (Life Technologies ThermoFisher Scientific, Villebon sur Yvette, France).
Reverse transcription was performed on 500 ng of RNA using the high capacity RNA-to-cDNA mix (Applied Biotechnologies). qPCR was performed on 12.5 ng of cDNA using the following primers, purchased from Applied Biotechnology.
For qPCR reactions, the kit TaqMan™ Fast Universal PCR Master Mix (2×) was used. The following volumes were used: mix: 10 uL, enzyme: 4 uL, oligo: 1 uL each, cDNA: 5 uL (12,5 ng). For the comparisons between various compounds and concentrations, expression levels were calculated using the ΔCt method where the expression level of the mRNA of interest is given by 2-ΔCT with ΔCT=CT target mRNA−CT reference mRNA (Gapdh), in the same sample. For the cultures treated with GA or the unknown compound, relative expression levels were determined according to the ΔΔCt method where the expression level of the mRNA of interest is given by 2-ΔΔCT where ΔΔCT=ΔCt for treated cultures−ΔCt for untreated cultures.

In experiment [3] the target is 5-HT2A receptors (Homo sapiens, UniProt P28223). Nature of the experiment: Molecular binding profile, 5-HT2A.
Experiment [4] addresses sigma1 receptors (Homo sapiens, UniProt Q99720). Nature of the experiment: Molecular binding profile, sigma1.
Experiment [5] relates to dopaminergic receptors. In words: Receptor affinity, dopaminergic. The experiment is classed as binding.
The test system of experiment [6] is cholinergic receptors. Nature of the experiment: Receptor affinity, cholinergic. The class given is binding.

Chain of sigma1 receptors (Q99720 whole entry): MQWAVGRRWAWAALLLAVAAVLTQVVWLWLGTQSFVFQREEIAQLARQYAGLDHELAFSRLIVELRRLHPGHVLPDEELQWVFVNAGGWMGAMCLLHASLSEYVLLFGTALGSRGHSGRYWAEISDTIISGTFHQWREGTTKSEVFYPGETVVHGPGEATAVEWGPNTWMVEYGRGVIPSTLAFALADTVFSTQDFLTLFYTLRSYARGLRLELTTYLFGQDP
Chain of 5-HT2A receptors (P28223 whole entry): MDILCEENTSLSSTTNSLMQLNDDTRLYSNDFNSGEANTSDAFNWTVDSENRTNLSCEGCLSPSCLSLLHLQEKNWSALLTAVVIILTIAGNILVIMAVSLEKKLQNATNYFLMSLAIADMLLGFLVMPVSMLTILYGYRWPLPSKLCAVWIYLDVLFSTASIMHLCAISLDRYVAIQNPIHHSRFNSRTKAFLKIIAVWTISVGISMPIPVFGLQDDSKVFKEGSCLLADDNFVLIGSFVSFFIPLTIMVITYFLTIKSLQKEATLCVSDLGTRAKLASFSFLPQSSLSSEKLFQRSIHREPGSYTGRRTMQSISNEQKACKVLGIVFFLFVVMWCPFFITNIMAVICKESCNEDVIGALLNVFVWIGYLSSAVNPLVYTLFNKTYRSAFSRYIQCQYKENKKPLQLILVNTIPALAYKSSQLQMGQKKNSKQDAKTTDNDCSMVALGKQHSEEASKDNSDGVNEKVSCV

As to `O=C(CN1CCC(CN2Cc3ccccc3C2=O)CC1)c1ccc(F)cc1` [Compound (I), 1H-Isoindol-1-one, 2-[[1-[2-(4-Fluorophenyl)-2-oxoethyl]-4-piperidinyl]methyl]-2,3-dihydro-, hydrochloride, hydrate (1:1:2)], the “BDNF release hippocampal neurons, % increase of control conditions” value is given as 11.0% in experiment [1] (30 nM), 14.9% in experiment [1] (100 nM), 27.5% in experiment [1] (300 nM) and 24.3% in experiment [1] (1 μM). The “BDNF expression astrocytes, % increase of control conditions” value came out at 26% in experiment [2] (0.3 nM); 55% in experiment [2] (1 nM); 81% in experiment [2] (3 nM); 71% in experiment [2] (10 nM); 31% in experiment [2] (30 nM); 5% in experiment [2] (100 nM). Besides, the “BDNF expression by astrocytes, fold change (Fc) compared to control condition” value in experiment [2] (1 nM, p<0.05) amounted to 1.55; in experiment [2] (3 nM, p<0.001), 1.81; in experiment [2] (10 nM, p<0.01) it was 1.71. Also, the inhibition constant (Ki) amounted to 7.5 nM in experiment [3] and 254 nM in experiment [4]. Also, in experiment [5], the “affinity for dopaminergic receptors” value is “no affinity”. Moreover, the “affinity for cholinergic receptors” value in experiment [6] is listed as “no affinity”.
